{"source": "patent US9469854B2", "about": "“Pharmaceutical composition for treating liver diseases” (Academia Sinica, priority 2014, dated 2016)", "key": {"MAT2A": {"system": "MAT2A", "test": "qRT-PCR mRNA expression in HepG2 cells", "type": "cell-based, human", "conditions": "for decrease in mRNA expression of MAT2A: HepG2, 50 nM mimic transfection", "description": "(§1) The human HepG2 cells and HEK 293T cells used in the following examples were originally obtained from the American Tissue Culture Collection (ATCC, USA). The human HCC HepG2 cell line was cultured in Minimum Essential Medium Eagle (Sigma) supplemented with 10% fetal bovine serum (FBS) (Invitrogen), 2.2 g/L of sodium bicarbonate (Sigma), 0.1 mM of non-essential amino acids (Caisson), 1 mM of sodium pyruvate (Invitrogen), and 10 of ml/L penicillin-streptomycin-amphotericin solution (Biological Industries). Human HEK-293T cells were maintained in high-glucose Dulbecco's modified eagle medium (Invitrogen) supplemented with 10% FBS and 3.7 g/L of sodium bicarbonate (Sigma). Both cell lines were cultured at 37° C. and 5% CO2. A 50 mM stock solution of berberine chloride (Sigma-Aldrich) was prepared in dimethyl sulfoxide (DMSO). Cells were treated with 40 μM of berberine chloride or 0.08% DMSO as the control. For induction of lipid droplets formation in cultured cells, 200 μM of oleic acid (Sigma-Aldrich) was added into the culture medium for 24 h. Total RNA was extracted using a TRIZOL reagent (Invitrogen) according to the manufacturer's protocol. The total RNA quantity was measured using a NanoDrop ND-1000 spectrophotometer (Nanodrop Technologies). The total RNA quality and integrity were assayed using an Agilent 2100 bioanalyzer with an RNA 6000 nano kit (Agilent Technologies). Total RNAs (1 μg) were reverse-transcribed into cDNA by using M-MuLV Reverse Transcriptase (Thermo) and Oligo(dT)12-18 primers (Invitrogen) according to the manufacturer's protocol. The cDNA were then used for a real-time PCR with a LightCycler 480 SYBR Green I Master (Roche) by using primers shown in the following Table 1. The gene expression levels were normalized to GAPDH levels. […] Cells were incubated for 24 h or 48 h with a microRNA mimic or inhibitor prior to RNA purification for gene expression analysis, and were incubated for 72 h for protein expression analysis."}, "ACACB [1]": {"system": "ACACB", "test": "qRT-PCR mRNA expression in HepG2 cells", "type": "cell-based, human", "description": "as §1"}, "MAT2B": {"system": "MAT2B", "test": "qRT-PCR mRNA expression in HepG2 cells", "type": "cell-based, human", "description": "as §1"}, "MAT1A": {"system": "MAT1A", "test": "qRT-PCR mRNA expression in HepG2 cells", "type": "cell-based, human", "description": "as §1"}, "miR-21-3p": {"system": "miR-21-3p", "test": "qRT-PCR microRNA assay in HepG2 cells", "type": "cell-based, human", "conditions": "HepG2, 40 μM berberine", "description": "(§2) The human HepG2 cells and HEK 293T cells used in the following examples were originally obtained from the American Tissue Culture Collection (ATCC, USA). The human HCC HepG2 cell line was cultured in Minimum Essential Medium Eagle (Sigma) supplemented with 10% fetal bovine serum (FBS) (Invitrogen), 2.2 g/L of sodium bicarbonate (Sigma), 0.1 mM of non-essential amino acids (Caisson), 1 mM of sodium pyruvate (Invitrogen), and 10 of ml/L penicillin-streptomycin-amphotericin solution (Biological Industries). Human HEK-293T cells were maintained in high-glucose Dulbecco's modified eagle medium (Invitrogen) supplemented with 10% FBS and 3.7 g/L of sodium bicarbonate (Sigma). Both cell lines were cultured at 37° C. and 5% CO2. A 50 mM stock solution of berberine chloride (Sigma-Aldrich) was prepared in dimethyl sulfoxide (DMSO). Cells were treated with 40 μM of berberine chloride or 0.08% DMSO as the control. For induction of lipid droplets formation in cultured cells, 200 μM of oleic acid (Sigma-Aldrich) was added into the culture medium for 24 h. Total RNA was extracted using a TRIZOL reagent (Invitrogen) according to the manufacturer's protocol. The total RNA quantity was measured using a NanoDrop ND-1000 spectrophotometer (Nanodrop Technologies). The total RNA quality and integrity were assayed using an Agilent 2100 bioanalyzer with an RNA 6000 nano kit (Agilent Technologies). […] The microRNA expression levels were normalized to RNU6B levels."}, "miR-21-5p": {"system": "miR-21-5p", "test": "qRT-PCR microRNA assay in HepG2 cells", "type": "cell-based, human", "conditions": "HepG2, 40 μM berberine", "description": "as §2"}, "DGAT2": {"system": "DGAT2", "test": "qRT-PCR mRNA expression in primary human hepatocytes", "type": "cell-based", "conditions": "PHH", "description": "(§3) The primary human hepatocytes from Caucasian donors were purchased from Invitrogen and cultured following the manufacturer's instructions. The hepatocytes were thawed and transferred into cryopreserved hepatocytes recovery medium (CM7000, Invitrogen), centrifuging at room temperature, 100×g for 10 min. Then, the hepatocytes were diluted to seeding density with plating medium (CM3000, Invitrogen) and added into collagen I-coated plates (Invitrogen). These plates were incubated at 37° C. for 4-6 hours under 5% CO2 for forming a monolayer. Then, plating medium was replaced by overlay incubation medium (CM4000 and 0.35 mg/mL Geltrex™ Matrix, Invitrogen), and the incubation medium was replaced daily. In the following examples, hepatocytes form 3 to 4 donors were used for experiments. A 50 mM stock solution of berberine chloride (Sigma-Aldrich) was prepared in dimethyl sulfoxide (DMSO). Cells were treated with 40 μM of berberine chloride or 0.08% DMSO as the control. For induction of lipid droplets formation in cultured cells, 200 μM of oleic acid (Sigma-Aldrich) was added into the culture medium for 24 h. Total RNA was extracted using a TRIZOL reagent (Invitrogen) according to the manufacturer's protocol. The total RNA quantity was measured using a NanoDrop ND-1000 spectrophotometer (Nanodrop Technologies). The total RNA quality and integrity were assayed using an Agilent 2100 bioanalyzer with an RNA 6000 nano kit (Agilent Technologies). Total RNAs (1 μg) were reverse-transcribed into cDNA by using M-MuLV Reverse Transcriptase (Thermo) and Oligo(dT)12-18 primers (Invitrogen) according to the manufacturer's protocol. The cDNA were then used for a real-time PCR with a LightCycler 480 SYBR Green I Master (Roche) by using primers shown in the following Table 1. The gene expression levels were normalized to GAPDH levels."}, "ACACB [2]": {"system": "ACACB", "test": "qRT-PCR mRNA expression in primary human hepatocytes", "type": "cell-based", "conditions": "PHH", "description": "as §3"}, "ACACA": {"system": "ACACA", "test": "qRT-PCR mRNA expression in primary human hepatocytes", "type": "cell-based", "conditions": "PHH", "description": "as §3"}, "RPTOR": {"system": "RPTOR", "test": "qRT-PCR mRNA expression in primary human hepatocytes", "type": "cell-based", "conditions": "for decrease in RPTOR expression: 50 nM mimic transfection", "description": "as §3"}, "MTOR": {"system": "MTOR", "test": "qRT-PCR mRNA expression in primary human hepatocytes", "type": "cell-based", "conditions": "for decrease in MTOR expression: 50 nM mimic transfection", "description": "as §3"}, "HLCS": {"system": "HLCS", "test": "qRT-PCR mRNA expression in primary human hepatocytes", "type": "cell-based", "description": "as §3"}, "[3]": {"conditions": "HepG2, 40 μM berberine, up to 8 h"}, "[4]": {"conditions": "HepG2, 50 nM mimic transfection, 48 h"}, "[5]": {"conditions": "24 h, cells not named in b149 (primary human hepatocytes)"}}, "data": [{"molecule": "COc1ccc2cc3[n+](cc2c1OC)CCc1cc2c(cc1-3)OCO2", "note": "[berberine]", "values": [{"measurement": "MAT2A mRNA level decrease", "setting": "MAT2A; HepG2, 40 μM berberine, 2 h vs 0.08% DMSO", "result": 1.8, "unit": "fold"}, {"measurement": "MAT2A mRNA level decrease", "setting": "MAT2A; HepG2, 40 μM berberine, 4 h (lowest value) vs 0.08% DMSO", "result": 3.8, "unit": "fold"}, {"measurement": "MAT2A mRNA level change (given as increase)", "setting": "MAT2A; HepG2, 40 μM berberine, 8 h vs 0.08% DMSO", "result": 2.2, "unit": "fold"}, {"measurement": "ACACB expression", "setting": "ACACB [1]; HepG2, berberine (data not shown)", "result": "consistently decreased"}, {"measurement": "MAT2B mRNA expression change", "setting": "MAT2B; [3]", "result": "did not change substantially"}, {"measurement": "MAT1A mRNA expression change", "setting": "MAT1A; [3]", "result": "did not change substantially"}, {"measurement": "miR-21-3p level increase (qRT-PCR)", "setting": "miR-21-3p; 1 h vs untreated control", "result": 2.1, "unit": "fold"}, {"measurement": "miR-21-3p level increase (qRT-PCR)", "setting": "miR-21-3p; 2 h (peak) vs untreated control", "result": 3.5, "unit": "fold"}, {"measurement": "miR-21-3p level increase (qRT-PCR)", "setting": "miR-21-3p; 8 h vs untreated control", "result": 2.8, "unit": "fold"}, {"measurement": "miR-21-5p level increase (qRT-PCR)", "setting": "miR-21-5p; 2 h", "result": 2, "unit": "fold"}, {"measurement": "miR-21-5p expression change (qRT-PCR)", "setting": "miR-21-5p; 4 h and 8 h", "result": "no significant differences"}, {"measurement": "changes in DGAT2 expression levels", "setting": "DGAT2; 40 μM berberine, 2-8 h", "result": "not significant"}, {"measurement": "mRNA expression of ACACB", "setting": "ACACB [2]; 40 μM berberine, 4-8 h", "result": "decreases"}, {"measurement": "ACACA expression decrease", "setting": "ACACA; 40 μM berberine, 8 h", "result": 2.1, "unit": "fold"}, {"measurement": "mRNA expression of RPTOR", "setting": "RPTOR; PHH, 40 μM berberine, 4-8 h", "result": "decreases"}, {"measurement": "mRNA expression of MTOR", "setting": "MTOR; PHH, 40 μM berberine, 4-8 h", "result": "decreases"}, {"measurement": "mRNA expression of HLCS", "setting": "HLCS; PHH, 40 μM berberine, 4-8 h", "result": "decreases"}]}, {"molecule": "hsa-miR-21-3p (CAACACCAGUCGAUGGGCUGU; listed as RNA, chemistry not given here) [miR-21-3p mimic]", "values": [{"measurement": "decrease in mRNA expression of MAT2A", "setting": "MAT2A; 24 hours", "result": "> 50", "unit": "%"}, {"measurement": "decrease in mRNA expression of MAT2A", "setting": "MAT2A; 48 h", "result": "> 50", "unit": "%"}, {"measurement": "decrease in mRNA expression of ACACB", "setting": "ACACB [1]; HepG2, mimic transfection, 24 h", "result": 50, "unit": "%"}, {"measurement": "decrease in mRNA expression of MAT2B", "setting": "MAT2B; [4]", "result": "> 50", "unit": "%"}, {"measurement": "decrease in mRNA expression of MAT1A", "setting": "MAT1A; [4]", "result": "but not in that of MAT1A"}, {"measurement": "decrease in mRNA expression levels of DGAT2", "setting": "DGAT2; mimic transfection, 48 h", "result": 1.5, "unit": "fold"}, {"measurement": "ACACB expression decrease", "setting": "ACACB [2]; 50 nM mimic transfection, 48 h", "result": 1.8, "unit": "fold"}, {"measurement": "ACACA expression decrease", "setting": "ACACA; 50 nM mimic transfection, 48 h", "result": 1.6, "unit": "fold"}, {"measurement": "decrease in RPTOR expression", "setting": "RPTOR; [5]", "result": 1.6, "unit": "fold"}, {"measurement": "decrease in RPTOR expression", "setting": "RPTOR; 48 h, cells not given", "result": 2.2, "unit": "fold"}, {"measurement": "decrease in MTOR expression", "setting": "MTOR; [5]", "result": 1.4, "unit": "fold"}, {"measurement": "decrease in MTOR expression", "setting": "MTOR; 48 h, cells not given", "result": 2.5, "unit": "fold"}, {"measurement": "decrease in HLCS expression", "setting": "HLCS; 50 nM mimic transfection, 48 h, cells not given", "result": 1.5, "unit": "fold"}]}]}
